Measured values reported in patent publication US11786492B2, “Therapeutic agent for phosphodiesterase inhibition and its related disorders” (Novalead Pharma Inc, priority 2017, dated 2023).

What was measured:
[1] = system: Imiquimod induced psoriasis in BALB/c mice; assay: Imiquimod induced psoriasis model in Balb/c mice
Experimental: BALB/c mice (Sex: Female, Age: 7-8 Weeks) were used for induction of psoriasis using IMQ. Topical application of imiquimod (IMQ) in mice can induce and exacerbate psoriasis closely resembling human psoriasis. […] 3%, 4% and 5% and positive control of Tenovate (Clobetasol) 0.05% cream. In all 63 mg cream containing 5% of IMQ was applied to dorsal area (shaved back) and right ear for 8 days. Topical formulations from Example 7 were used during this experiment.
The parameters investigated were ear thickness change, % inhibition of ear inflammation, Psoriatic Area Severity Index (PASI). Histopathology was performed of right ear and dorsal skin by H & E staining. The biomarker in this study was inflammatory cytokine IL-23 analyzed by ELISA obtained from tissue lysate of ear region where IMQ and doses were applied.

[2] = system: human PBMCs; assay: Cell viability of human PBMCs, Alamar blue; format: cell-based; settings: 3 μM
Experimental: (§1) Fresh human blood from healthy volunteer was collected in anticoagulant (5 mM) ethylene diamine tetra acetic acid (EDTA) containing tubes. The growth medium used was RPMI-1640 medium (with 3% FBS) and incubated at 37° C. for 60 mins in a 5% CO2 incubator with vehicle used as 1% DMSO. The cell viability was checked at various time points using Alamar blue and fluorescence readings were taken at excitation of 544 nm and emission of 590 nm.

[3] = system: Human IL-22; assay: IL-22 release from stimulated PBMCs, ELISA; format: cell-based; settings: 1 μM; PMA+Ionomycin, 18 hrs
Experimental: as §1
(§2) PBMCs were stimulated with different stimulators as follows: • a. Cells were exposed to stimulator LPS at 100 ng/mL for 18 hrs to stimulate TNF-α, IL-6, IFN-γ, IL10, IL-1β • b. Cells were exposed to stimulator IFN-γ+LPS at 100 ng/mL+1 μg/mL for 18 hrs to stimulate IL-12 • c. Cells were exposed to stimulator PMA+Ionomycin at 50 ng/mL+1 μg/mL for 18 hrs to stimulate IL-23, IL-22, IL-17A, IL-17F
(§3) After 18 hrs supernatants were collected and centrifuged to remove any cell debris and aliquots were used for ELISA.

[4] = system: Human IL-17A; assay: IL-17A release from stimulated PBMCs, ELISA; format: cell-based; settings: 1 μM; PMA+Ionomycin, 18 hrs
Experimental: as §1, §2, §3

[5] = system: Human IL-17F; assay: IL-17F release from stimulated PBMCs, ELISA; format: cell-based; settings: 1 μM; PMA+Ionomycin, 18 hrs
Experimental: as §1, §2, §3

[6] = system: Human TNF-α; assay: TNF-α release from stimulated PBMCs, ELISA; format: cell-based; settings: 1 μM; LPS 100 ng/mL, 18 hrs
Experimental: as §1, §2, §3

[7] = system: Human IL-6; assay: IL-6 release from stimulated PBMCs, ELISA; format: cell-based; settings: 1 μM; LPS 100 ng/mL, 18 hrs
Experimental: as §1, §2, §3

[8] = system: Human IL-10; assay: IL-10 release from stimulated PBMCs, ELISA; format: cell-based; settings: 1 μM; LPS 100 ng/mL, 18 hrs
Experimental: as §1, §2, §3

[9] = system: Human IL-12; assay: IL-12 release from stimulated PBMCs, ELISA; format: cell-based; settings: 1 μM; IFN-γ+LPS, 18 hrs
Experimental: as §1, §2, §3

[10] = system: Human IFN-γ; assay: IFN-γ release from stimulated PBMCs, ELISA; format: cell-based; settings: 1 μM; LPS 100 ng/mL, 18 hrs
Experimental: as §1, §2, §3

[11] = system: Human IL-1β; assay: IL-1β release from stimulated PBMCs, ELISA; format: cell-based; settings: 1 μM; LPS 100 ng/mL, 18 hrs
Experimental: as §1, §2, §3

[12] = system: HaCaT cells; assay: Cell viability of HaCaT cells, Alamar blue; format: cell-based, human; settings: 3 μM
Experimental: (§4) HaCaT cells were maintained in T-75 cm2 flask in Dulbecco's modified Eagle medium supplemented with FBS (10%), L-glutamine (2 mM), penicillin (100 ug/ml), streptomycin (100 ug/ml) at 37° C. in 5% CO2 incubator. Cell growth was maintained to 70-80% confluence for seeding and vehicle used was 1% DMSO. The cell viability was checked at various time points using Alamar blue and fluorescence readings were taken at excitation of 544 nm and emission of 590 nm.

[13] = system: TNF-α; assay: TNF-α release from stimulated HaCaT cells, ELISA; format: cell-based, human; settings: 1 μM; IFN-γ 50 ng/mL, 48 hrs
Experimental: as §4
(§5) HaCaT cells were stimulated with different stimulators as follows: • a. Cells were exposed to stimulator LPS at 1 μg/mL for 48 hrs to stimulate IL-1β • b. Cells were exposed to stimulator IFN-γ at 50 ng/mL for 48 hrs to stimulate TNF-α, IL-6
(§6) After 48 hrs supernatants were collected and centrifuged to remove any cell debris and aliquots were used for ELISA.

[14] = system: IL-6; assay: IL-6 release from stimulated HaCaT cells, ELISA; format: cell-based, human; settings: 1 μM; IFN-γ 50 ng/mL, 48 hrs
Experimental: as §4, §5, §6

C[C@H]1C[C@H]2[C@@H]3CCC4=CC(=O)C=C[C@]4(C)[C@@]3(F)[C@@H](O)C[C@]2(C)[C@@]1(O)C(=O)CCl [Clobetasol]
% Body Weight Change ([1]; 0.05% cream, positive control): −16.9%
% inhibition of Ear inflamn. ([1]; 0.05% cream, positive control): 86.9%
Histopathology Scores Epidermal Thickness ([1]; 0.05% cream, positive control): 4.3 ± 0.3
Histopathology Scores Hyperkeratosis ([1]; 0.05% cream, positive control): 1.0 ± 0.0
Histopathology Scores Rete Peg Prolifern. ([1]; 0.05% cream, positive control): 0.3 ± 0.3
PASI score ([1]; 0.05% cream, positive control): 4.83 ± 2.3
Spleen weight ([1]; 0.05% cream, positive control, Day 9): 49.3 ± 10.3 mg
IL23 Levels ([1]; 0.05% cream, positive control, ear tissue lysate): 64.1 ± 7.4 pg/mL
Spleen weight vs disease control (in words) ([1]; Niclosamide 2%, Nitazoxanide 3% and 5%, Clobetasol 0.05%, Day 9): reduction in spleen weight was observed to be significant
Body weight change (in words) ([1]; all tested doses, Clobetasol Day 7 to Day 9): significant body weight change
IL-23 level in ear tissue homogenates (in words) ([1]; different doses): reduces IL-23 levels below that of normal control

C[C@@H]1C[C@H]2[C@@H]3CCC4=CC(=O)C=C[C@]4(C)[C@@]3(F)[C@@H](O)C[C@]2(C)[C@@]1(O)C(=O)CO [Dexamethasone]
% Viability (±S.E.M.) ([2]; 24 hrs): 82 ± 6%
% Viability (±S.E.M.) ([2]; 48 hrs): 78 ± 1%
% Viability (±S.E.M.) ([2]; 72 hrs): 81 ± 1%
Human IL-22 concentration [3]: 2496 pg/mL
Human IL-17A concentration [4]: 186 pg/mL
Human IL-17F concentration [5]: 322 pg/mL
Human TNF-α concentration [6]: 325 pg/mL
Human IL-6 concentration [7]: 3052 pg/mL
Human IL-10 concentration [8]: 710 pg/mL
Human IL-12 concentration [9]: 163 pg/mL
Human IFN-γ concentration [10]: 165 pg/mL
Human IL-1β concentration [11]: 174 pg/mL
% Viability (±S.E.M.) ([12]; 24 hrs): 46 ± 3%
% Viability (±S.E.M.) ([12]; 48 hrs): 18 ± 2%
% Viability (±S.E.M.) ([12]; 72 hrs): 8 ± 0%
TNF-α Conc. [13]: 3.2 ± 0 pg/mL
IL-6 Conc. [14]: 33 ± 1 pg/mL
